Consider five substances from publication PMC3514216, “SRC Homology 2 Domain Binding Sites in Insulin, IGF-1 and FGF receptor mediated signaling networks reveal an extensive potential interactome” (Cell Communication and Signaling : CCS, 2012).

Substitutions are numbered along the chain they refer to. pKd: −log10 of the molar value.

The target in one experiment is Crk SH2 domain (Homo sapiens, UniProt P46108). Nature of the experiment: SPOT peptide array. It counts as binding. The settings on record: GST-SH2 0.25 μM, membrane-bound peptide, 1 mM DTT, LiCor read-out. The essentials:
(§1)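 Membrane-bound 11-mer phosphotyrosine peptides (pTyr at position 5, four N-terminal and six C-terminal flanking residues; ~5 nmol per spot) from receptor, scaffold and signalling proteins were probed with GST–SH2 fusions. Bound domain was detected with anti-GST and near-infrared secondary antibodies; spots >3× membrane mean scored positive, <1× mean negative.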

Another experiment relates to Hck SH2 domain. Nature of the experiment: SPOT peptide array. It counts as binding. Conditions: GST-SH2 0.25 μM, membrane-bound peptide, 1 mM DTT, LiCor read-out. Summed up:
as §1

Another experiment has as its system panel of 50 SH2 domains. Nature of the experiment: SPOT peptide array probed with each of 50 GST-SH2 domains. It counts as binding. The settings on record: SH2 domains with intensity >3X array mean; GST-SH2 0.25 μM, 1 mM DTT. Summed up: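 Each GST-fused SH2 domain was overlaid on 192 membrane-synthesized pTyr peptides (11-mers, 4 N-terminal and 6 C-terminal flanking residues) and read with anti-GST and near-infrared secondary antibodies. Binding called relative to membrane mean intensity (>3× positive, <1× negative); GST-only probes defined nonspecific peptides.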

For experiment [1], the target named is T1, Nck1 SH2 domain (Homo sapiens, UniProt P16333). Kind of experiment: SPOT peptide array. The settings on record: GST-SH2 0.25 μM, membrane-bound peptide, 1 mM DTT, LiCor read-out. It counts as binding. Summed up: as §1
The target of experiment [2] is T1, Nck1 SH2 domain. Also noted: method as in PMID 16636066. The settings on record: peptide similar to the TIR10 peptide (EHIpYDEVAAD); read-out: Affinity (KD); cited from earlier work.
For experiment [3], the target named is T2, Abl2 SH2 domain (Homo sapiens, UniProt P42684).
T2 sequence (P42684 173-263 limits assumed): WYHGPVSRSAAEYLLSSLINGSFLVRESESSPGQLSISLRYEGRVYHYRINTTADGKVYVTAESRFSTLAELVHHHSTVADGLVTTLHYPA
Also noted: method as in earlier work. Conditions: SH2 protein microarray; N.B. = non binding; read-out: Protein Microarray (Macbeath) – KD; cited from earlier work.

Experiment [4] deals with T3, CrkL SH2 domain (Homo sapiens, UniProt P46109). On the set-up: method as in earlier work. Conditions: SH2 protein microarray; N.B. = non binding; read-out: Protein Microarray (Macbeath) – KD; cited from earlier work.
T3 sequence (P46109 14-102 limits assumed): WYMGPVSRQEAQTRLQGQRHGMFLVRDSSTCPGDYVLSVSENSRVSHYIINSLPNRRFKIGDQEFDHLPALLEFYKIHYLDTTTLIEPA
Experiment [5] addresses T4, Grb2 SH2 domain (Homo sapiens, UniProt P62993). Also noted: method as in earlier work. The settings on record: SH2 protein microarray; N.B. = non binding; read-out: Protein Microarray (Macbeath) – KD; cited from earlier work.
For experiment [6], the target named is T5, Abl1 SH2 domain (Homo sapiens, UniProt P00519).
T5 sequence (P00519 127-217 limits assumed): T2 sequence (P42684 173-263 limits assumed) with S9N, L18G, L35R, T53A, A54S, V58L, T61S, A62S, S67N, V84I
Also noted: method as in earlier work. The settings on record: SH2 protein microarray; N.B. = non binding; read-out: Protein Microarray (Macbeath) – KD; cited from earlier work.

For another experiment, the target named is Itk SH2 domain (Homo sapiens, UniProt Q08881). Nature of the experiment: SPOT peptide array. Type of experiment: binding. The settings on record: spot intensity as factor of array mean; GST-SH2 0.25 μM.
Sequence of Itk SH2 domain (Q08881 239-338 limits assumed): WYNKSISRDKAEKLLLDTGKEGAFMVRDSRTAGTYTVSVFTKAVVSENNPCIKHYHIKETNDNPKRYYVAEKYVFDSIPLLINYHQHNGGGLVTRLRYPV
Experiment [7] relates to Grb7 SH2 domain. Kind of experiment: SPOT peptide array. Conditions: spot intensity as factor of array mean; GST-SH2 0.25 μM. Type of experiment: binding. The essentials:
as §1

Experiment [8] addresses T4, Grb2 SH2 domain. Kind of experiment: SPOT peptide array. It counts as binding. Conditions: spot intensity as factor of array mean; GST-SH2 0.25 μM. The essentials:
as §1

Experiment [9] has as its system Yes SH2 domain. Kind of experiment: SPOT peptide array. It counts as binding. The settings on record: spot intensity as factor of array mean; GST-SH2 0.25 μM. Summed up: as §1
Experiment [10] deals with T3, CrkL SH2 domain. Nature of the experiment: SPOT peptide array. Conditions: spot intensity as factor of array mean; GST-SH2 0.25 μM. Type of experiment: binding. The essentials:
as §1

The target of experiment [11] is T5, Abl1 SH2 domain. Kind of experiment: SPOT peptide array. It counts as binding. Conditions: spot intensity as factor of array mean; GST-SH2 0.25 μM. The essentials: as §1
The target in experiment [12] is T2, Abl2 SH2 domain. Nature of the experiment: SPOT peptide array. Type of experiment: binding. Conditions: spot intensity as factor of array mean; GST-SH2 0.25 μM. Summed up:
as §1

A further experiment deals with Rasa1_N SH2 domain (Homo sapiens, UniProt P20936). Nature of the experiment: SPOT peptide array. It counts as binding. Conditions: spot intensity as factor of array mean; GST-SH2 0.25 μM.
Sequence of Rasa1_N SH2 domain (P20936 181-272 limits assumed): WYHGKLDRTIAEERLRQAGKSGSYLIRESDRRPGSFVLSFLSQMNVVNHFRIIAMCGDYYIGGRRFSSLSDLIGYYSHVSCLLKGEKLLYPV
The target in experiment [13] is Grb7 SH2 domain. Also noted: method as in earlier work. The settings on record: SH2 protein microarray; N.B. = non binding; read-out: Protein Microarray (Macbeath) – KD; cited from earlier work.
The target in experiment [14] is Yes SH2 domain. Also noted: method as in earlier work. The settings on record: SH2 protein microarray; N.B. = non binding; read-out: Protein Microarray (Macbeath) – KD; cited from earlier work.
The target in a further experiment is T6, Rasa1_C SH2 domain (Homo sapiens, UniProt P20936).
T6 sequence (P20936 351-441 limits assumed): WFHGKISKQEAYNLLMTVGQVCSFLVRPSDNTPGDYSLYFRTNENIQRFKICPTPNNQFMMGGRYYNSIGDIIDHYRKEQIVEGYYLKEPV
Nature of the experiment: SPOT peptide array. It counts as binding. The settings on record: GST-SH2 0.25 μM, membrane-bound peptide, 1 mM DTT, LiCor read-out.

T4 sequence (P62993 60-152 limits assumed): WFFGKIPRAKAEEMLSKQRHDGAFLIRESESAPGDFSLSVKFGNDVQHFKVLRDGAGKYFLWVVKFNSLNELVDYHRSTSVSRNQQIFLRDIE
Sequence of Crk SH2 domain (P46108 13-118 limits assumed): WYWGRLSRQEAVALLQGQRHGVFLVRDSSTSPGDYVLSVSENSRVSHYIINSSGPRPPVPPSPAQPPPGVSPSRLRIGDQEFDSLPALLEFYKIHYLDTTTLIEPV

For the substance “EDDGpYDVPKPP [11-mer phosphotyrosine control peptide, Cbl (Y774), reference compound]”, the Array positive entry on Crk SH2 domain and with Hck SH2 domain was “Yes (Array-positive binding was ascribed to interactions with intensities greater than three times the array mean)” each time. The “Other SH2 domains bound (additional array-positive SH2 domains)” value in the experiment with panel of 50 SH2 domains is “Crkl and Fgr, Src, Yes”.

For orientation: pKd means −log10 of the Kd, conventionally taken in molar units. As for “GLDEpYDEVPMP [11-mer phosphotyrosine control peptide, B3AT (Y921), similar to the TIR10 peptide, reference compound]”, the Array positive entry on Nck1 SH2 domain [1] was “Yes (Array-positive binding was ascribed to interactions with intensities greater than three times the array mean)”. The negative logarithm of the Kd (pKd) with Nck1 SH2 domain [2] was 7.22.

As to “QARRPPGLEpYCYNPSHND* (QARRPPGLEYCYNPSHND) [FGFR1 Y583 phosphopeptide; Cys replaced with Ala or Ser on peptide arrays]”, the negative logarithm of the Kd (pKd) is 6.47 in the experiment with Abl2 SH2 domain [3], 5.81 with CrkL SH2 domain [4], 5.79 in the experiment with Grb2 SH2 domain [5] and 5.74 with Abl1 SH2 domain [6].

With “QARRPPGLEpYCYNPSHND* [FGFR1 Y583 phosphopeptide; Cys replaced with Ala or Ser on peptide arrays]”, the “Peptide array intensity (X mean)” value on Itk SH2 domain was below 2x X Mean; in the experiment on Grb7 SH2 domain [7], above 3x X Mean; at Grb2 SH2 domain [8], below 2x X Mean; in the experiment with Yes SH2 domain [9] it was below 2x X Mean; at CrkL SH2 domain [10], below 2x X Mean; on Abl1 SH2 domain [11], above 3x X Mean. Moreover, the “Peptide array intensity (X mean)” value on Abl2 SH2 domain [12] and on Rasa1_N SH2 domain was below 2x X Mean throughout. Also, the values for the pKd at Grb7 SH2 domain [13] and at Yes SH2 domain [14] were 6.00 and 5.81, respectively.

As for “QDSLpYSDPLDS [11-mer phosphotyrosine peptide, p62DOK1 (Y315)]”, on Rasa1_C SH2 domain, the Array positive result is on record as “Yes (Array-positive binding was ascribed to interactions with intensities greater than three times the array mean)”. In addition, the “Other SH2 domains bound (additional array-positive SH2 domains)” value with panel of 50 SH2 domains is given as “Abl1, Blk, Crk, Lck, Lyn, Nck1, Src, Zap70_N”.
